Laboratory results from patent publication US7074819B2, “Benzopyran or thiobenzopyran derivatives” (Chugai Seiyaku Kabushiki Kaisha, priority 1998, dated 2006).
Read-outs that look alike come from different tables or passages of the source.

Legend:
ovariectomized mice [1] = test: Anti-estrogenic activity (subcutaneous administration): inhibition of estradiol-stimulated uterine weight increase; type: in vivo, mice (ICR); details: s.c., 3 days; for Inhibition (%) of the increase of uterine weight by estradiol: 30 μg/mouse in peanut oil, ovariectomized ICR mice given 17β-estradiol-benzoate 0.1 μg/day; for inhibition of the increase of uterine weight by estradiol (in words): 30 μg/mouse, ovariectomized mice given 17β-estradiol
Method: Anti-estrogenic activity of the test compound by subcutaneous administration was determined according to the method described hereinafter. In this experiment, the compounds of Examples 1, 2, 3, 4, 5, 22, 127 and 128 were used as the test compound and the known anti-estrogenic compound ZM189154 was used as the control compound as in Experiment 1.
In this experiment, the test compound or the control compound was dissolved in peanut oil (Sigma) and injected subcutaneously for 3 days, once a day. After 24 hours from the last injection, the test animal was sacrificed and uterus was removed and weighed.

MCF-7 cell lines (ATCC) = test: Cell growth inhibiting activity (MTT, with 0.1 nM estradiol, 7 days); type: cell-based; details: MCF-7 cells, read-out: IC50 value for inhibiting cell growth of 50%
Method: In this experiment, the cell growth inhibiting activity was determined by using the compounds of Examples 1, 2, 3, 5, 22, 127 and 128 as the test compound and the known anti-estrogenic compound […] having the following structure (see, EP0124369 B1) as the control compound, according to the method described hereinafter.
One day before drug administration, incubated MCF-7 cells were plated in 96-well plate in the concentration of 5×10^3 cells per well. After the 96-well plate was incubated for one day, 0.1 nM of estradiol and the test compound in the given concentration were added to each well. The plate was incubated for 7 days at 37° C. and then MTT solution (Sigma) was added to each well in the amount of 15 μl and allowed to react for 2 hours at 37° C. After the reaction was completed, the solubilizing/stopping solution (constitution: SDS, acetic acid, N,N-dimethylformamide) was added to each well in the amount of 100 μl. Then, the absorption for each well at 570 nm was measured by means of a plate reader. IC50 value for inhibiting cell growth of 50% was calculated from the results as measured and described in the following Table 2.

ovariectomized mice [2] = test: Anti-estrogenic activity (oral administration): inhibition of estradiol-stimulated uterine weight increase; type: in vivo; details: p.o., 3 days, 10 mg/kg in 5% arabic gum solution; ovariectomized ICR mice given 17β-estradiol-benzoate 0.1 μg/day
Method: Oral anti-estrogenic activity in vivo of the test compound was determined according to the method described hereinafter. In this experiment, the compound of Example 3, 22, 127 and 128 were used as the test compound and the known anti-estrogenic compound ZM189154 was used as the control compound as in Experiment 2.
In this experiment, the test compound or the control compound was suspended in 5% arabic gum solution and orally administered for 3 days, once a day. After 24 hours from the last administration, the test animal was sacrificed and uterus was removed and weighed.

[3] = 7 days at 37° C., absorption at 570 nm

Row | Molecule | Inhibition (%) of the increase of uterine weight by estradiol (ovariectomized mice [1]) [%] | IC50 (MCF-7 cell lines (ATCC); [3]) [nM] | Inhibition (%) of the increase of uterine weight by estradiol (ovariectomized mice [2]) [%] | IC50 (MCF-7 cell lines (ATCC); Homo sapiens, MCF7, 168 h, 7 days at 37° C., absorption at 570 nm) [nM] | inhibition of the increase of uterine weight by estradiol (in words) (ovariectomized mice [1]) | IC50 (MCF-7 cell lines (ATCC); Homo sapiens, MCF7, 168 h, 7 days, control compound, (cis)) [nM] | IC50 (MCF-7 cell lines (ATCC); Homo sapiens, MCF7, 168 h, 7 days, control compound, (trans)) [nM]
1 | CC(C)(C)c1cc(CN2CCN(CCOc3ccc([C@@H]4c5ccc(O)cc5OC[C@@]4(C)c4ccc(O)cc4)cc3)CC2)cc(C(C)(C)C)c1 (racemic) [Example 3, (3RS,4SR)-7-hydroxy-4-{4-{2-{4-{[3,5-bis(t-butyl)phenyl]methyl}piperazinyl}ethoxy}phenyl}-3-(4-hydroxyphenyl)-3-methylchroman] | 11.7 | 54.5 | 0.6 | – | – | – | –
2 | CCCCN=C(CCCCCCCCCC[C@H]1c2ccc(O)cc2OC[C@@]1(C)c1ccc(O)cc1)NCCCC (racemic) [Compound II of Example 2, (3RS,4RS)-7-hydroxy-4-[(11-N-butylimino-11-N-butylamino)undecyl]-3-(4-hydroxyphenyl)-3-methylchroman] | −9.3 | 1000 | – | – | – | – | –
3 | [O-][S+](CCCC(F)(F)C(F)(F)F)CCOCCOc1ccc(C2=C(c3ccc(O)cc3)COc3cc(O)ccc32)cc1 (stereo not drawn) [Example 5, 4-{4-{2-[2-(4,4,5,5,5-pentafluoropentylsulfinyl)ethoxy]ethoxy}phenyl}-7-hydroxy-3-(4-hydroxyphenyl)-2H-chromene] | 9.8 | – | – | 387 | – | – | –
4 | CC1(c2ccc(O)cc2)CSc2cc(O)ccc2C1CCCCCCCCC(CCCC(F)(F)C(F)(F)F)C(=O)O (stereo not drawn) [Example 22, (3′RS,4′RS)-10-[7-hydroxy-3-(4-hydroxyphenyl)-3-methyltbiochroman-4-yl]-2-(4,4,5,5,5-pentafluoropentyl)decanoic acid] | 51.0 | 850 | 81.3 | – | substantially inhibit | – | –
5 | CCCCNC(=N)CCCCCCCCCC[C@H]1c2ccc(O)cc2OC[C@@]1(C)c1ccc(O)cc1 (racemic) [Compound I of Example 2, (3RS,4RS)-7-hydroxy-4-[(11-imino-11-N-butylamino)undecyl]-3-(4-hydroxyphenyl)-3-methylchroman] | 30.8 | 67.5 | – | – | – | – | –
6 | CN(CCCCC[C@H]1c2ccc(O)cc2OC[C@@]1(C)c1ccc(O)cc1)CCCSCCCC(F)(F)C(F)(F)F (racemic) [Example 4, (3RS,4RS)-7-hydroxy-3-(4-hydroxyphenyl)-4-{5-[N-methyl-N-3-(4,4,5,5,5-pentafluoropentylthio)propylamino]pentyl}-3-methylchroman] | 26.4 | – | – | – | – | – | –
7 | 7-hydroxy-3-(4-hydroxyphenyl)-3-methyl-4-{9-[4-(4,4,5,5,5-pentafluoropentyl)piperazinyl]nonyl}chroman [Example 1] | 27.5 | 60.4 | – | – | substantially inhibit | – | –
8 | C[C@]1(c2ccc(O)cc2)CCc2cc(O)ccc2C1CCCCCCCCC[S+]([O-])CCCC(F)(F)C(F)(F)F (stereo partly drawn) [ZM189154, reference compound] | 73.8 | – | 41.7 | – | – | 9.2 | 77
